Among the test systems are SK-OV-3 ovarian; LOX IMVI melanoma; MDA-MB-435; NCI-H522 lung; A498 renal; OVCAR-3 ovarian; SR leukemia; SF-268 CNS; HCC-2998 colon; CCRF-CEM leukemia.
What all share (assay): NCI anticancer screen, dose series, 48 h

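How tested: cells in 96-well plates exposed to compound for 48 hours at five concentrations. TGI is the concentration that stops growth completely.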

Take `C(/C=C(\Nc1ccccc1)C12CC3CC(CC(C3)C1)C2)=Nc1ccccc1`: the TGI in the test with SK-OV-3 ovarian is 46.5 µM; in the test with LOX IMVI melanoma, 28.6 µM; in the test on MDA-MB-435, 34.3 µM; in the test with NCI-H522 lung it was 24.3 µM; in the test on A498 renal it was greater than 100 µM; in the test on OVCAR-3 ovarian it was 21.1 µM. Besides, the TGI in the test with SR leukemia was 30.4 µM; with SF-268 CNS, 41.1 µM; in the test on HCC-2998 colon, 33.2 µM; with CCRF-CEM leukemia, 8.38 µM.

For the molecule `O=C1NCC(NC(=O)C(F)(F)F)c2c(Br)sc(Br)c21` (stereo not given), the TGI in the test on SK-OV-3 ovarian, in the test with LOX IMVI melanoma, in the test with MDA-MB-435, with NCI-H522 lung, in the test with A498 renal and in the test on OVCAR-3 ovarian was greater than 100 µM throughout. For the same molecule, the TGI with SR leukemia, with SF-268 CNS, with HCC-2998 colon and with CCRF-CEM leukemia was greater than 100 µM throughout.

Take `c1csc(-c2ccc(-c3cccs3)c3nsnc23)c1`: the TGI with SK-OV-3 ovarian was greater than 96.4 µM; in the test on LOX IMVI melanoma, greater than 61.9 µM; in the test on MDA-MB-435 it was greater than 100 µM; in the test on NCI-H522 lung, greater than 100 µM; in the test on A498 renal it was greater than 100 µM; with OVCAR-3 ovarian it was greater than 57.4 µM. The TGI in the test with SR leukemia is 39.9 µM; with SF-268 CNS it was greater than 59.2 µM; in the test with HCC-2998 colon, greater than 100 µM; with CCRF-CEM leukemia, 31.5 µM.

`O=C1CC(C(O)(C(F)(F)F)C(F)(F)Cl)CCC1C(O)(C(F)(F)F)C(F)(F)Cl` (stereo not given): the TGI in the test with SK-OV-3 ovarian, with LOX IMVI melanoma, with MDA-MB-435, in the test on NCI-H522 lung, with A498 renal and in the test on OVCAR-3 ovarian was greater than 10 µM each time. Besides, the TGI in the test on SR leukemia, in the test with SF-268 CNS, in the test with HCC-2998 colon and with CCRF-CEM leukemia was greater than 10 µM in each case.

For the molecule `COc1cc2nc(-c3cccs3)oc(=O)c2cc1OC`, the TGI in the test with SK-OV-3 ovarian, in the test with LOX IMVI melanoma, in the test with MDA-MB-435, in the test with NCI-H522 lung, in the test with A498 renal and in the test with OVCAR-3 ovarian was greater than 100 µM throughout. For the same molecule, the TGI in the test on SR leukemia, with SF-268 CNS and in the test on CCRF-CEM leukemia was greater than 100 µM each time.

For `COC(=O)c1cc2c(cc1CC1Cc3cc4c(cc3C1)CCC4)CCC2`, the TGI in the test on SK-OV-3 ovarian was greater than 100 µM; in the test with LOX IMVI melanoma it was 55 µM; in the test with MDA-MB-435, greater than 100 µM; in the test on NCI-H522 lung, 80 µM; in the test with A498 renal, greater than 100 µM; in the test on OVCAR-3 ovarian it was greater than 100 µM. The TGI in the test with SR leukemia was 47.2 µM; in the test with SF-268 CNS it was greater than 100 µM; in the test on HCC-2998 colon, 70 µM; in the test on CCRF-CEM leukemia, 45.3 µM.

As for `O=C(NCCCN(CCCCN(CCCNC(=O)C(F)(F)F)Cc1ccc2ccccc2c1)Cc1ccc2ccccc2c1)C(F)(F)F`, the TGI in the test with SK-OV-3 ovarian was greater than 100 µM; in the test with LOX IMVI melanoma, greater than 100 µM; in the test with MDA-MB-435, 3.87 µM; in the test on NCI-H522 lung, greater than 100 µM; in the test with A498 renal, greater than 100 µM; with OVCAR-3 ovarian, greater than 100 µM. In addition, the TGI was 7.18 µM in the test with SR leukemia, greater than 100 µM with SF-268 CNS, 2.93 µM in the test on HCC-2998 colon and greater than 100 µM in the test on CCRF-CEM leukemia.

In the case of `COC(=O)c1c2c(cc3c1CCC3)CCC2`, the TGI in the test on SK-OV-3 ovarian is greater than 100 µM; in the test on LOX IMVI melanoma, greater than 100 µM; with MDA-MB-435 it was greater than 100 µM; with NCI-H522 lung, greater than 100 µM; in the test with A498 renal, 90.3 µM; with OVCAR-3 ovarian it was greater than 100 µM. Further, the TGI in the test with SR leukemia was 44.8 µM; in the test with SF-268 CNS, greater than 100 µM; in the test with HCC-2998 colon, greater than 100 µM; in the test with CCRF-CEM leukemia, 53.3 µM.

As to `C/C1=C\CC[C@@]2(C)O[C@@H]2C[C@@H](C2(C)CO2)CC/C(C)=C/CC1` (stereo not given in full), the TGI in the test with SK-OV-3 ovarian was greater than 100 µM; with LOX IMVI melanoma it was 28.8 µM; with MDA-MB-435 it was 46.4 µM; in the test on NCI-H522 lung, 52.6 µM; in the test on A498 renal, greater than 100 µM; in the test with OVCAR-3 ovarian, 48.9 µM. The TGI in the test on SR leukemia was greater than 100 µM; in the test with SF-268 CNS, 33.9 µM; in the test with HCC-2998 colon, 39.2 µM; with CCRF-CEM leukemia, greater than 100 µM.

As for `CC(C)(C)OC(=O)NCCC(N)=S`, the TGI in the test with SK-OV-3 ovarian, in the test on MDA-MB-435, in the test on A498 renal, with OVCAR-3 ovarian, with SR leukemia and in the test with SF-268 CNS was greater than 100 µM each time. This molecule had a TGI with CCRF-CEM leukemia greater than 100 µM.

Take `CCOC(=O)C(Cl)(Cl)/S(=N\S(=O)(=O)c1ccccc1)NC(=O)c1ccccc1` (stereo not given): the TGI in the test with SK-OV-3 ovarian, in the test on LOX IMVI melanoma, in the test with MDA-MB-435, with A498 renal, in the test on OVCAR-3 ovarian and in the test with SR leukemia was greater than 100 µM throughout. For the same molecule, the TGI in the test with SF-268 CNS and with CCRF-CEM leukemia was greater than 100 µM each time.

Regarding `CCOC(=O)c1nc2ccc(C(F)(F)F)cc2nc1Oc1ccc(C#N)cc1`, the TGI in the test with SK-OV-3 ovarian is 46 µM; in the test with LOX IMVI melanoma it was greater than 100 µM; with MDA-MB-435, greater than 100 µM; with A498 renal, 57.1 µM; in the test with SR leukemia, greater than 100 µM; with SF-268 CNS it was 33.6 µM. Besides, the TGI with HCC-2998 colon and in the test on CCRF-CEM leukemia was greater than 100 µM throughout.

In the case of `CCCCNC(=S)N/N=C/c1cccc(C)n1`, the TGI in the test on SK-OV-3 ovarian is greater than 100 µM; in the test on LOX IMVI melanoma it was greater than 100 µM; in the test on MDA-MB-435, greater than 100 µM; in the test with NCI-H522 lung, 41.8 µM; in the test on A498 renal it was greater than 100 µM; with OVCAR-3 ovarian, greater than 100 µM. Moreover, the TGI in the test on SR leukemia is greater than 100 µM; in the test with SF-268 CNS it was greater than 100 µM; with CCRF-CEM leukemia, 40.2 µM.

For the molecule `O=C(Oc1cc(=O)c(OC(=O)c2ccccc2)co1)c1ccccc1`, the TGI in the test on SK-OV-3 ovarian, with LOX IMVI melanoma, with MDA-MB-435, with NCI-H522 lung, in the test with A498 renal and with OVCAR-3 ovarian was greater than 100 µM throughout. In addition, the TGI in the test on SR leukemia, in the test with SF-268 CNS and with HCC-2998 colon was greater than 100 µM in each case.

(Values after PubChem BioAssay (NCI).)
